# Test results: ChEMBL document CHEMBL1909046, “DrugMatrix in vitro pharmacology data”
# Target: T1, Progesterone receptor (Bos taurus, UniProt Q690N0)
# T1 sequence (Q690N0 whole entry): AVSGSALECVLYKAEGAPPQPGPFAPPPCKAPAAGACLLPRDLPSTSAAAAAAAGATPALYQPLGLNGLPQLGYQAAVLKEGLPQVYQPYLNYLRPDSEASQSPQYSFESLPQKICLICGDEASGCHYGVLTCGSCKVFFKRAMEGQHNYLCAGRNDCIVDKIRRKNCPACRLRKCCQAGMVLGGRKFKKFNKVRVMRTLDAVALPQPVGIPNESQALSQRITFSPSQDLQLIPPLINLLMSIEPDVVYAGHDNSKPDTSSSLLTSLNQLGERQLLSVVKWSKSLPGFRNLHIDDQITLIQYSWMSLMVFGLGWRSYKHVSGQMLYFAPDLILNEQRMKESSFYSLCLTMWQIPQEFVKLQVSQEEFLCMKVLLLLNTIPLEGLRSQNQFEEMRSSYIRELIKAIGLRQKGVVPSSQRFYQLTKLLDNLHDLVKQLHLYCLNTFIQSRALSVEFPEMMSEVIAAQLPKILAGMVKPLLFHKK
# Test: DRUGMATRIX: Progesterone radioligand binding (ligand: [3H] R-5020)
# Type: tissue-based, Uterus
# Conditions: Not Active = under 50% inhibition at 10 µM
row,Structure (SMILES),IC50
1,CC(C)C[C@H]1C(=O)N2CCC[C@H]2[C@]2(O)O[C@](NC(=O)[C@@H]3C=C4c5cccc6[nH]cc(c56)C[C@H]4N(C)C3)(C(C)C)C(=O)N12 [ERGOCRYPTINE],Not Active
2,C[C@]12CC[C@@H]3c4ccc(O)cc4CC[C@H]3[C@@H]1C[C@@H](O)[C@@H]2O [ESTRIOL],Not Active
3,CN1CCN(c2c(F)cc3c(=O)c(C(=O)O)cn(CCF)c3c2F)CC1 [FLEROXACIN],Not Active
4,O=c1[nH]c(=O)n([C@H]2C[C@H](O)[C@@H](CO)O2)cc1F [FLOXURIDINE],Not Active
5,COC(=O)Nc1nc2cc(C(=O)c3ccc(F)cc3)ccc2[nH]1 [FLUBENDAZOLE],Not Active

# System: not listed separately
# Test: DRUGMATRIX: ATPase, Na+/K+ enzyme inhibition (substrate: ATP)
# Type: tissue-based, Sus scrofa, Heart
# Conditions: Not Active = under 50% inhibition at 10 µM
Structure (SMILES),IC50,Ki
CC(C)C[C@H]1C(=O)N2CCC[C@H]2[C@]2(O)O[C@](NC(=O)[C@@H]3C=C4c5cccc6[nH]cc(c56)C[C@H]4N(C)C3)(C(C)C)C(=O)N12 [ERGOCRYPTINE],Not Active,Not Active
C[C@]12CC[C@@H]3c4ccc(O)cc4CC[C@H]3[C@@H]1C[C@@H](O)[C@@H]2O [ESTRIOL],Not Active,Not Active
CN1CCN(c2c(F)cc3c(=O)c(C(=O)O)cn(CCF)c3c2F)CC1 [FLEROXACIN],Not Active,Not Active
O=c1[nH]c(=O)n([C@H]2C[C@H](O)[C@@H](CO)O2)cc1F [FLOXURIDINE],Not Active,Not Active
COC(=O)Nc1nc2cc(C(=O)c3ccc(F)cc3)ccc2[nH]1 [FLUBENDAZOLE],Not Active,Not Active

# Target: T2, Vasoactive intestinal polypeptide receptor 1 (Homo sapiens, UniProt P32241); note: in other assays of this panel Not Active means under 50% inhibition at 10 µM
# T2 sequence (P32241 whole entry): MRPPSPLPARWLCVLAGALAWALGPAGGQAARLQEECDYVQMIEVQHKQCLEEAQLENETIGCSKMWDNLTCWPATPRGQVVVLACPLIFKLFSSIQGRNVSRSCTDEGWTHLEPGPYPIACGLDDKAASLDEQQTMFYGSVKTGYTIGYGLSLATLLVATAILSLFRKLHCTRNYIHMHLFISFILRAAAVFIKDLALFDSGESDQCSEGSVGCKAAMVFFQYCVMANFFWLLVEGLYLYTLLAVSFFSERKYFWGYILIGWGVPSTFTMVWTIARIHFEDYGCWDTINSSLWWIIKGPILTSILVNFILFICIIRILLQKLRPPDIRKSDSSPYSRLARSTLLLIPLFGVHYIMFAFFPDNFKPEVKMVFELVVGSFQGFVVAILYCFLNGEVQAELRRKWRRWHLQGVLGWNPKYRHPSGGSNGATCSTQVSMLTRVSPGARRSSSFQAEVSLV
# Type: cell membranes, Membrane
# Conditions: ht-29
row,Structure (SMILES),IC50
1,CC(C)C[C@H]1C(=O)N2CCC[C@H]2[C@]2(O)O[C@](NC(=O)[C@@H]3C=C4c5cccc6[nH]cc(c56)C[C@H]4N(C)C3)(C(C)C)C(=O)N12 [ERGOCRYPTINE],Not Active
2,C[C@]12CC[C@@H]3c4ccc(O)cc4CC[C@H]3[C@@H]1C[C@@H](O)[C@@H]2O [ESTRIOL],Not Active
3,CN1CCN(c2c(F)cc3c(=O)c(C(=O)O)cn(CCF)c3c2F)CC1 [FLEROXACIN],Not Active
4,O=c1[nH]c(=O)n([C@H]2C[C@H](O)[C@@H](CO)O2)cc1F [FLOXURIDINE],Not Active
5,COC(=O)Nc1nc2cc(C(=O)c3ccc(F)cc3)ccc2[nH]1 [FLUBENDAZOLE],Not Active

# Target: T3, Cytochrome P450 1A2 (Homo sapiens, UniProt P05177); note: in other assays of this panel Not Active means under 50% inhibition at 10 µM
# T3 sequence (P05177 whole entry): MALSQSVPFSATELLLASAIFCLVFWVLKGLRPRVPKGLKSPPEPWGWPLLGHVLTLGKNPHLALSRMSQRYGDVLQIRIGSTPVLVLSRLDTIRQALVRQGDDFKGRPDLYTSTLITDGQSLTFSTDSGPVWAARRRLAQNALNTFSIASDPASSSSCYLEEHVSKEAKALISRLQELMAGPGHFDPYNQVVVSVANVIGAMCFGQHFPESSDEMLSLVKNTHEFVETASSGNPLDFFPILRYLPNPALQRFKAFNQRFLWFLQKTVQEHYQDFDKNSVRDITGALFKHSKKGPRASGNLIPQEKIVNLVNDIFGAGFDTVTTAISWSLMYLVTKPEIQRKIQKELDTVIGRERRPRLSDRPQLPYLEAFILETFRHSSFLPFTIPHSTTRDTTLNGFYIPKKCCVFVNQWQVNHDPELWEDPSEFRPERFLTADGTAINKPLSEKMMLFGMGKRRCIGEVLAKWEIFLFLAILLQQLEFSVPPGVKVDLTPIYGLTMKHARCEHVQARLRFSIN
# Conditions: bti-tn-5b1-4
Structure (SMILES),IC50,Ki
CC(C)C[C@H]1C(=O)N2CCC[C@H]2[C@]2(O)O[C@](NC(=O)[C@@H]3C=C4c5cccc6[nH]cc(c56)C[C@H]4N(C)C3)(C(C)C)C(=O)N12 [ERGOCRYPTINE],Not Active,Not Active
C[C@]12CC[C@@H]3c4ccc(O)cc4CC[C@H]3[C@@H]1C[C@@H](O)[C@@H]2O [ESTRIOL],Not Active,Not Active
CN1CCN(c2c(F)cc3c(=O)c(C(=O)O)cn(CCF)c3c2F)CC1 [FLEROXACIN],Not Active,Not Active
O=c1[nH]c(=O)n([C@H]2C[C@H](O)[C@@H](CO)O2)cc1F [FLOXURIDINE],Not Active,Not Active
COC(=O)Nc1nc2cc(C(=O)c3ccc(F)cc3)ccc2[nH]1 [FLUBENDAZOLE],Not Active,Not Active

# Target: Nitric oxide synthase 1 (Rattus norvegicus, UniProt P29476); note: in other assays of this panel Not Active means under 50% inhibition at 10 µM
# Type: tissue-based, Cerebellum
# Conditions: not given
# Chain of Nitric oxide synthase 1 (P29476 whole entry): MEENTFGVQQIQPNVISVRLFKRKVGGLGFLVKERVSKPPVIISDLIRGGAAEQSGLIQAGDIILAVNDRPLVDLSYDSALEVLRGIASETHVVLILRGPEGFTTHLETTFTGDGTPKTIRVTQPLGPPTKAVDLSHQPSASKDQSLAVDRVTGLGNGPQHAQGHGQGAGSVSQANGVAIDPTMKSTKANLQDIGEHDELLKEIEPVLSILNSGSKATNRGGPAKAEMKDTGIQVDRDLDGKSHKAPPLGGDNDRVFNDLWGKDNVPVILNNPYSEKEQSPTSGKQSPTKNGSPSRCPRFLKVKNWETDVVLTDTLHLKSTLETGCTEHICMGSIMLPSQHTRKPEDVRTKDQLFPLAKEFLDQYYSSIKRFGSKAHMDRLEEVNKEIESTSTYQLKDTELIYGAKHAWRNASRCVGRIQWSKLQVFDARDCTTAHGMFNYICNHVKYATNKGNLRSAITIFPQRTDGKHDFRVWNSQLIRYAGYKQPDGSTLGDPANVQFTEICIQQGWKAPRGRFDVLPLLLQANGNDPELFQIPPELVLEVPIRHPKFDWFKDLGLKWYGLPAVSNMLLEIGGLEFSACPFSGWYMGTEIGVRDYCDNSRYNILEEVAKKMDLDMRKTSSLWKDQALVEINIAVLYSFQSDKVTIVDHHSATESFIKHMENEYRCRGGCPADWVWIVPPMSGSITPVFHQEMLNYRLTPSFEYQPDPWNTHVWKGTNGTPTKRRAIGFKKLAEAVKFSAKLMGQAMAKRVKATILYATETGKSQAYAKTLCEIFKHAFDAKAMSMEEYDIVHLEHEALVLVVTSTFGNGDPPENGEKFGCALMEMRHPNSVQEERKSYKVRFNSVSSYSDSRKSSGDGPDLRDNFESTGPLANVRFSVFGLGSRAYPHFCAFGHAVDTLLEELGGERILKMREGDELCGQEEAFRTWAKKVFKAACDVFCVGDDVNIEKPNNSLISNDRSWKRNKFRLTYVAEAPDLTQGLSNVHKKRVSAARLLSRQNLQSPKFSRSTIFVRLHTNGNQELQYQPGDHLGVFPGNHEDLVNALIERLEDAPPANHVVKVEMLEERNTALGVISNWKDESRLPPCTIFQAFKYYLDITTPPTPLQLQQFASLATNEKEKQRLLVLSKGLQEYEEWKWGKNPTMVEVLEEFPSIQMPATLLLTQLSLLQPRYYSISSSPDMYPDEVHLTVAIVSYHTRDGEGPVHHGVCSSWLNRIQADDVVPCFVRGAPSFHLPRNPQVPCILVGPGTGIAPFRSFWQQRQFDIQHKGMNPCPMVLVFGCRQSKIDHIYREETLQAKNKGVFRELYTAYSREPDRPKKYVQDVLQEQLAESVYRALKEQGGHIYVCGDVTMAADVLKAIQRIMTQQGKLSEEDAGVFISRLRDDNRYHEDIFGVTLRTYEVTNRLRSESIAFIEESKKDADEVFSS
row,Structure (SMILES),IC50
1,CC(C)C[C@H]1C(=O)N2CCC[C@H]2[C@]2(O)O[C@](NC(=O)[C@@H]3C=C4c5cccc6[nH]cc(c56)C[C@H]4N(C)C3)(C(C)C)C(=O)N12 [ERGOCRYPTINE],Not Active
2,C[C@]12CC[C@@H]3c4ccc(O)cc4CC[C@H]3[C@@H]1C[C@@H](O)[C@@H]2O [ESTRIOL],Not Active
3,CN1CCN(c2c(F)cc3c(=O)c(C(=O)O)cn(CCF)c3c2F)CC1 [FLEROXACIN],Not Active
4,O=c1[nH]c(=O)n([C@H]2C[C@H](O)[C@@H](CO)O2)cc1F [FLOXURIDINE],Not Active
5,COC(=O)Nc1nc2cc(C(=O)c3ccc(F)cc3)ccc2[nH]1 [FLUBENDAZOLE],Not Active

# Target: T4, Receptor-type tyrosine-protein phosphatase C (Homo sapiens, UniProt P08575);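 note: inhibition of CD45 enzyme activity measured using DiFMUP as substrate; in other assays of this panel Not Active means under 50% inhibition at 10 µM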
# T4 sequence (P08575 whole entry): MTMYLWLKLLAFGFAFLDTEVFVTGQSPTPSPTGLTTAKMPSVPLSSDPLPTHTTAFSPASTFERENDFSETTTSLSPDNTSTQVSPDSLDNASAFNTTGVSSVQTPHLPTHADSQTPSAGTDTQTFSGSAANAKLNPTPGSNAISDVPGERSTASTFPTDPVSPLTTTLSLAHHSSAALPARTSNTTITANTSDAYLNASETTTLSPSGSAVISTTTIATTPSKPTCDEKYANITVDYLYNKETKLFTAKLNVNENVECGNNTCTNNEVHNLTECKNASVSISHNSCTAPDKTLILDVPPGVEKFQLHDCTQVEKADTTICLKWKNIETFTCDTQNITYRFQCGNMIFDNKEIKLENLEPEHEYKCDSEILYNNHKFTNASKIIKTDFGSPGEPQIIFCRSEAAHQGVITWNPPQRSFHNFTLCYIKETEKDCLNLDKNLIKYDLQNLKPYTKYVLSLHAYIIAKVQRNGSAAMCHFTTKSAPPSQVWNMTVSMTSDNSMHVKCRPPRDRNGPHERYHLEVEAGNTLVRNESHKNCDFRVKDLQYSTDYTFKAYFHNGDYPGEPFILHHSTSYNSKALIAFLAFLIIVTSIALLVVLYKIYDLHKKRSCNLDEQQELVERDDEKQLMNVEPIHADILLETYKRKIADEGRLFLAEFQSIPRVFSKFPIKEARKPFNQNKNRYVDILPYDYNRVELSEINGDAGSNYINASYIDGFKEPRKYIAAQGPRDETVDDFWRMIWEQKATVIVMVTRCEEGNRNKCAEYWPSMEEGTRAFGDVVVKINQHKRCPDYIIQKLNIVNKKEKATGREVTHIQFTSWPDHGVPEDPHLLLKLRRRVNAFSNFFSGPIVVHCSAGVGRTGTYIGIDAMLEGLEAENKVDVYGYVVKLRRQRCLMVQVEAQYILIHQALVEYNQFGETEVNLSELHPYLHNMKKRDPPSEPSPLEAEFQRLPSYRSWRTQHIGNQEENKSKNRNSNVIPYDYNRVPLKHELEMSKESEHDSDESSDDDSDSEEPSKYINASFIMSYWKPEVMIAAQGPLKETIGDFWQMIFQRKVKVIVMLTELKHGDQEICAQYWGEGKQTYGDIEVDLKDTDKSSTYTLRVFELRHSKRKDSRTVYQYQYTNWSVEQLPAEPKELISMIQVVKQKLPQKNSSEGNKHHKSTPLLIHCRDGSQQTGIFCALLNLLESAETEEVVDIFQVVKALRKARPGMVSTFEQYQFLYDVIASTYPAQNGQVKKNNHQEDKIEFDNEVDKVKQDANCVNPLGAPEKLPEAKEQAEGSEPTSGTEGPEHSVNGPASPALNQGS
# Set-up: species or system Escherichia coli
# Conditions: not given
row,Structure (SMILES),IC50
1,CC(C)C[C@H]1C(=O)N2CCC[C@H]2[C@]2(O)O[C@](NC(=O)[C@@H]3C=C4c5cccc6[nH]cc(c56)C[C@H]4N(C)C3)(C(C)C)C(=O)N12 [ERGOCRYPTINE],Not Active
2,C[C@]12CC[C@@H]3c4ccc(O)cc4CC[C@H]3[C@@H]1C[C@@H](O)[C@@H]2O [ESTRIOL],Not Active
3,CN1CCN(c2c(F)cc3c(=O)c(C(=O)O)cn(CCF)c3c2F)CC1 [FLEROXACIN],Not Active
4,O=c1[nH]c(=O)n([C@H]2C[C@H](O)[C@@H](CO)O2)cc1F [FLOXURIDINE],Not Active
5,COC(=O)Nc1nc2cc(C(=O)c3ccc(F)cc3)ccc2[nH]1 [FLUBENDAZOLE],Not Active
